# Source: patent US8889878B2, “Haloalky-substituted amides as insecticides and acaricides” (Bayer CropScience AG, priority 2009, dated 2014)
# Tests used:
# Boophilus microplus [1] = test: Boophilus microplus test (BOOPMI injection), Example 1; assay type: in vivo; details: application rate 20 μg/animal, injected into abdomen, after 7 days
# Method in brief: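 Compound in DMSO, diluted with water, injected into the abdomen of engorged ticks, which were then held in a climate-controlled room. Efficacy was scored after 7 days from fertile egg laying, with 100% meaning no tick laid fertile eggs.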
# Ctenocephalides felis = Ctenocephalides felis oral (CTECFE), Example 2; assay type: in vivo; details: application rate 20 ppm in citrated cow's blood, after 2 days
# Method in brief: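 Compound in DMSO diluted into citrated cow's blood, offered to 20 unfed adult C. felis through a Parafilm membrane. Kill rate (%) scored after 2 days; 100% means all fleas dead.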
# Lucilia cuprina larvae = test: Lucilia cuprina test (LUCICU), Example 3; assay type: in vivo; details: application rate 20 ppm, treated horsemeat, after 2 days
# Protocol: (§1) Lucilia cuprina Test (LUCICU) • Solvent: dimethyl sulphoxide To prepare an active ingredient formulation, 10 mg of active ingredient are mixed with 0.5 ml of dimethyl sulphoxide, and the concentrate is diluted with water to the desired concentration. Vessels containing horsemeat which has been treated with the active ingredient formulation of the desired concentration are populated with Lucilia cuprina larvae. After 2 days, the kill rate in % is determined. 100% means that all larvae were killed; 0% means that no larvae were killed.
# Musca domestica adults [2] = test: Musca domestica test (MUSCDO), Example 4; assay type: in vivo; details: application rate 20 ppm, treated sponge, after 2 days
# Protocol: as §1, with “Musca domestica” for “Lucilia cuprina”, “(MUSCDO)” for “(LUCICU)”, “a sponge” for “horsemeat”, “Musca domestica adults.” for “Lucilia cuprina larvae.”, “flies” for “larvae”
# Boophilus microplus [3] = test: Boophilus microplus test (BOOPMI injection), Example 11; assay type: in vivo; details: application rate 20 μg/animal, injected into abdomen, after 7 days
# Method in brief: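 Adult ticks injected in the abdomen with compound diluted in DMSO, then held in a climate-controlled room. Efficacy in % determined after 7 days from fertile eggs laid; 100% means no tick laid fertile eggs.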
# Musca domestica adults [4] = test: Musca domestica test (MUSCDO), Example 14; assay type: in vivo; details: application rate 100 ppm, treated sponge, after 2 days
# Method in brief: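 Compound dissolved in DMSO and diluted in water to the test concentration, then applied to a sponge in vessels holding adult flies. Percent kill scored after 2 days (100% = all flies dead).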
# [5] = logP by HPLC on reverse-phase column (EEC Directive 79/831 Annex V.A8); assay type: physicochemical; details: HPLC-MS
# Protocol: The logP values reported in the above Tables and Preparation Examples were determined according to EEC Directive 79/831 Annex V.A8 by HPLC (High Performance Liquid Chromatography) on a reverse-phase column (C18). Temperature 43° C.
structure (smiles),measurement,setting,value
CC(NC(=O)c1ccc(/C=C/C(=O)NC(c2cccc(C(F)(F)F)c2)C(F)(F)F)cc1C(F)(F)F)C(F)(F)F (stereo not shown) [Ia-30],efficacy in % (fertile eggs laid),Boophilus microplus [1],100%
same,kill rate in % (efficacy),Ctenocephalides felis,100%
same,kill rate in % (efficacy),Lucilia cuprina larvae,100%
same,kill rate in % (efficacy),Musca domestica adults [2],85%
same,efficacy in % (fertile eggs laid),Boophilus microplus [3],100%
same,kill rate in % (efficacy),Musca domestica adults [4],100%
same,logP,[5],HPLC-MS: logP = 3.58; mass
